Measured values from patent US12264156B2, “Compounds and pharmaceutical compositions thereof for the treatment of diseases” (GALAPAGOS NV, priority 2018, dated 2025).

Key:
SIK2 = target: T1, SIK2 (Homo sapiens, UniProt Q9H0K1); assay: ADP-Glo kinase assay, SIK2; format: biochemical; settings: ADP-Glo SIK kinase assay
T1 construct: purchased ThermoFisher Scientific PV4792
In short: (§1)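 Wells with 1% DMSO or 10 μM staurosporine (final) define the control window. The kinase reaction with substrate and ATP runs 120 min at RT, followed by ADP-Glo detection: ATP depletion (40 min) and ADP-derived luminescence (30 min).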

SIK1 = target: T2, SIK1 (Homo sapiens, UniProt P57059); assay: ADP-Glo kinase assay, SIK1; format: biochemical; settings: ADP-Glo SIK kinase assay
T2 construct: purchased Carna Biosciences 02-131
T2 sequence (P57059 whole entry): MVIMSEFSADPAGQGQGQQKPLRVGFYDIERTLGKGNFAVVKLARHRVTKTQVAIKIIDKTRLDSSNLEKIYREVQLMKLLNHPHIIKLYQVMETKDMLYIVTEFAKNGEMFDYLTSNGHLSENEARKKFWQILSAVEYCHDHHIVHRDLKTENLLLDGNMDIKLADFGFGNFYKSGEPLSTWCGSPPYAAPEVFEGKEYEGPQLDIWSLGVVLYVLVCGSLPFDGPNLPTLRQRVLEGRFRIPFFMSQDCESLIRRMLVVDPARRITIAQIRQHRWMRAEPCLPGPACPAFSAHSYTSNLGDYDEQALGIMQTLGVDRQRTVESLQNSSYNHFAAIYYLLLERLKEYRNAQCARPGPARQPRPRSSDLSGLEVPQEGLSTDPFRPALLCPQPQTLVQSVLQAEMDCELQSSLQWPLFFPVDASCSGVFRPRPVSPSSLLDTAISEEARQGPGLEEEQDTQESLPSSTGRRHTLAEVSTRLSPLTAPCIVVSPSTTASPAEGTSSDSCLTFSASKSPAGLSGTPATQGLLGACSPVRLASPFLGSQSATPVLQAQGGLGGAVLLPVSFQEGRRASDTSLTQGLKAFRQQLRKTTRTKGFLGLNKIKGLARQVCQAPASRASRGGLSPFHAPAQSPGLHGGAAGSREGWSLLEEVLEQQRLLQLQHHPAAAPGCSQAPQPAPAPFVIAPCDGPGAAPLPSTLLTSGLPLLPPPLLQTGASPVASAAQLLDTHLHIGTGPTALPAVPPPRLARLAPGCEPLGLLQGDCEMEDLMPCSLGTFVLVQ
In short: as §1

SIK3 = target: T3, SIK3 (Homo sapiens, UniProt Q9Y2K2); assay: ADP-Glo kinase assay, SIK3; format: biochemical; settings: ADP-Glo SIK kinase assay
T3 construct: purchased SignalChem S12-11G-100
T3 sequence (Q9Y2K2 whole entry): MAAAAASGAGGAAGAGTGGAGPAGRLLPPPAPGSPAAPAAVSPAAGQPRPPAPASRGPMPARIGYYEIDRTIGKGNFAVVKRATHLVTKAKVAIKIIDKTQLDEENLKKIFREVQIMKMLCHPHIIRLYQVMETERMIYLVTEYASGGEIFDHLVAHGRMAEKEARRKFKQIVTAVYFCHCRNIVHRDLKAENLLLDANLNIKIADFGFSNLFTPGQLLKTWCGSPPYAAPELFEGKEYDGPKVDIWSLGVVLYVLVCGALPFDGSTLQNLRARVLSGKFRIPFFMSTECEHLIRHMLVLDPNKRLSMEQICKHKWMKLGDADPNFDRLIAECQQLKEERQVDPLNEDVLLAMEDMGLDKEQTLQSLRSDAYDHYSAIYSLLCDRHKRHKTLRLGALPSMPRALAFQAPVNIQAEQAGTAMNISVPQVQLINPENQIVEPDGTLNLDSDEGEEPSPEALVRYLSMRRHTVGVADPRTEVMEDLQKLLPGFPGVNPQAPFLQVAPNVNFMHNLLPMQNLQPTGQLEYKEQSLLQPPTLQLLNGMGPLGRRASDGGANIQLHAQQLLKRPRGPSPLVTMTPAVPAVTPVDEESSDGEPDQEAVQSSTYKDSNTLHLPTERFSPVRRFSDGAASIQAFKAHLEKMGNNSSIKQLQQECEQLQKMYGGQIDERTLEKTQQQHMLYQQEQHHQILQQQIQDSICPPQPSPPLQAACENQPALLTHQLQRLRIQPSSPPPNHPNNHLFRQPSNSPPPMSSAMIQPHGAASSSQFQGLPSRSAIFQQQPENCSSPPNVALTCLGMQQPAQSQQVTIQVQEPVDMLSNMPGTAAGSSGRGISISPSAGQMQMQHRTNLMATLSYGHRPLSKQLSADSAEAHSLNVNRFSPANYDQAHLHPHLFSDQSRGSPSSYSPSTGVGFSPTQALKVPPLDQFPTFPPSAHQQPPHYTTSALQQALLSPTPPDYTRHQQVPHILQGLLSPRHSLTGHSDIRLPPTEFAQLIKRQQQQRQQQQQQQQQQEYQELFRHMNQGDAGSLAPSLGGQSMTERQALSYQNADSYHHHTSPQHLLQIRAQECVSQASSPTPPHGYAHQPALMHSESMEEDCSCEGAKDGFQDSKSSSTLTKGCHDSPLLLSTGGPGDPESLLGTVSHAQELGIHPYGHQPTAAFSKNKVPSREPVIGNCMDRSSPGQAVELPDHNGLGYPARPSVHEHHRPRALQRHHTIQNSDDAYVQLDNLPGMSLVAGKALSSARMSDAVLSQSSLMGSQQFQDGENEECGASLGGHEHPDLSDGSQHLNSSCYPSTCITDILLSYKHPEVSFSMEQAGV
In short: as §1

[1] = test system: LPS triggered IL-10 secretion in monocytes; assay: Monocytes assay: LPS-triggered IL-10 (ELISA); format: cell-based, human; settings: LPS 200 ng/mL, supernatant after 4 h, maximal fold change vs LPS only
In short: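 Human CD14+ monocytes, magnetically isolated from buffy-coat PBMCs, were seeded at 100 000 cells/well and preincubated with compound for 1 h at 37° C (0.2% DMSO). LPS was then added at a final 200 ng/mL for 4 h. Supernatant IL-10 was quantified by chemiluminescent sandwich ELISA against a standard curve.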

[2] = test system: LPS-induced TNFα in monocytes; assay: Monocytes assay: LPS-triggered TNFα (ELISA); format: cell-based, human; settings: Homo sapiens, Monocyte, LPS 200 ng/mL, supernatant after 4 h
In short: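 Human CD14+ monocytes from buffy-coat PBMCs (magnetic bead selection) were seeded at 100 000 cells/well and pretreated with compound for 1 h at 37° C (0.2% DMSO). They were then stimulated with 200 ng/mL LPS for 4 h, and supernatant TNFα was measured by chemiluminescent sandwich ELISA as percent inhibition.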

T1 sequence (Q9H0K1 whole entry): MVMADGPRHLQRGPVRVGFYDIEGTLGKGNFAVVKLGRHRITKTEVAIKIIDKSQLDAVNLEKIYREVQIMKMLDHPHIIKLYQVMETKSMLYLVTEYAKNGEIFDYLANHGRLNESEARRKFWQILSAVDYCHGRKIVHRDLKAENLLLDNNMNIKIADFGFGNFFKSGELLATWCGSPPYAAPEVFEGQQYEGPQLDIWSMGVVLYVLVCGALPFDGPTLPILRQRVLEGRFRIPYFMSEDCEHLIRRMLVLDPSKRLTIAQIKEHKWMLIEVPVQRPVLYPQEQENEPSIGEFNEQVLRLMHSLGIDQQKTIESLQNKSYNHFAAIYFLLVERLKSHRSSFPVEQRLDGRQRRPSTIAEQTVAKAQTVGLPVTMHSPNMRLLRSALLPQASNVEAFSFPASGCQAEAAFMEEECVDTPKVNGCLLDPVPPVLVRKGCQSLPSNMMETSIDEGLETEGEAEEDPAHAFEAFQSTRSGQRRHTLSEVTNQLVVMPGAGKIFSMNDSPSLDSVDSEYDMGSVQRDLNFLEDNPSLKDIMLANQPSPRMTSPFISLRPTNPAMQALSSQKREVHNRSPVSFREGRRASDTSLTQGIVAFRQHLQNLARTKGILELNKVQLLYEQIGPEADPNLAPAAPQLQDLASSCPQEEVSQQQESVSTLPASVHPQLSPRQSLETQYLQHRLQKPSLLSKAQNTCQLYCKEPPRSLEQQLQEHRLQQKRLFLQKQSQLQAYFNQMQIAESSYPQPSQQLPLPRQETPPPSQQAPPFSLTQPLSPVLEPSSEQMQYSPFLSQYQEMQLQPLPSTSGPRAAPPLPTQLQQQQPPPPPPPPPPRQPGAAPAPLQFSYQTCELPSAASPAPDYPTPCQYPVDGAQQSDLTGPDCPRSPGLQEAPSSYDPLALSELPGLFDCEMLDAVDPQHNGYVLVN

| Structure (SMILES) | IC50 (SIK2) | IC50 (SIK1) | IC50 (SIK3) | EC50 ([2]; 4 h) | IL-10 FCmax median [1] | EC50 [2] |
| --- | --- | --- | --- | --- | --- | --- |
| COC(=O)[C@@H]1CN(CC(O)COc2ccn3c(-c4cc(OC)c(C(=O)NC5CC5)c(OC(F)F)c4)cnc3c2)CCO1 (stereo partly drawn) [compound 388, methyl (2S)-4-[3-[3-[4-(cyclopropylcarbamoyl)-3-(difluoromethoxy)-5-methoxy-phenyl]imidazo[1,2-a]pyridin-7-yl]oxy-2-hydroxy-propyl]morpholine-2-carboxylate] | 0.01 to 10 nM | 10 to 100 nM | 0.01 to 10 nM | 100 to 1000 nM | +++ (>4.5) | – |
| CCOC(=O)COc1ccn2c(-c3cc(OC)c(C(=O)NC4CC4)c(OC(F)F)c3)cnc2c1 [Cpd 268, ethyl 2-[3-[4-(cyclopropylcarbamoyl)-3-(difluoromethoxy)-5-methoxy-phenyl]imidazo[1,2-a]pyridin-7-yl]oxyacetate] | 10 to 100 nM | 10 to 100 nM | 0.01 to 10 nM | 100 to 1000 nM | +++ (>4.5) | – |
| COc1cc(-c2cnc3cc(OCCCN4CC(C)(O)C4)ccn23)cc(OC(F)F)c1C(=O)NC1CC1 [compound 362, N-cyclopropyl-2-(difluoromethoxy)-4-[7-[3-(3-hydroxy-3-methyl-azetidin-1-yl)propoxy]imidazo[1,2-a]pyridin-3-yl]-6-methoxy-benzamide] | 0.01 to 10 nM | 10 to 100 nM | 0.01 to 10 nM | 100 to 1000 nM | ++ (>1.5-4.5) | – |
| COc1cc(-c2cnc3cc(OCCCN4CCS(=N)(=O)CC4)ccn23)cc(OC(F)F)c1C(=O)NC1CC1 [compound 327, N-cyclopropyl-2-(difluoromethoxy)-4-[7-[3-(1-imino-1-oxo-1,4-thiazinan-4-yl)propoxy]imidazo[1,2-a]pyridin-3-yl]-6-methoxy-benzamide] | 0.01 to 10 nM | 10 to 100 nM | 0.01 to 10 nM | 100 to 1000 nM | +++ (>4.5) | – |
| COc1cc(-c2cnc3cc(OCCCN4CCCC5(COC5)C4)ccn23)cc(OC(F)F)c1C(=O)NC1CC1 [compound 303, N-cyclopropyl-2-(difluoromethoxy)-6-methoxy-4-[7-[3-(2-oxa-8-azaspiro[3.5]nonan-8-yl)propoxy]imidazo[1,2-a]pyridin-3-yl]benzamide] | 0.01 to 10 nM | 10 to 100 nM | 0.01 to 10 nM | 0.1 to 100 nM | +++ (>4.5) | – |
| COc1cc(-c2cnc3cc(OCCCN4CC5CC4CO5)ccn23)cc(OC(F)F)c1C(=O)NC1CC1 (centres unmarked) [compound 284, N-cyclopropyl-2-(difluoromethoxy)-6-methoxy-4-[7-[3-(2-oxa-5-azabicyclo[2.2.1]heptan-5-yl)propoxy]imidazo[1,2-a]pyridin-3-yl]benzamide] | 0.01 to 10 nM | 0.01 to 10 nM | 0.01 to 10 nM | 0.1 to 100 nM | ++ (>1.5-4.5) | – |
| COc1cc(-c2cnc3cc(OCCCN4CCN(C(C)C)CC4)ccn23)cc(OC(F)F)c1C(=O)NC1CC1 [Cpd 279, N-cyclopropyl-2-(difluoromethoxy)-4-[7-[3-(4-isopropylpiperazin-1-yl)propoxy]imidazo[1,2-a]pyridin-3-yl]-6-methoxy-benzamide] | 0.01 to 10 nM | 0.01 to 10 nM | 0.01 to 10 nM | 0.1 to 100 nM | +++ (>4.5) | – |
| COc1cc(-c2cnc3cc(OCCNC(=O)C(F)F)ccn23)cc(OC(F)F)c1C(=O)NC1CC1 [Cpd 371, N-cyclopropyl-4-[7-[2-[(2,2-difluoroacetyl)amino]ethoxy]imidazo[1,2-a]pyridin-3-yl]-2-(difluoromethoxy)-6-methoxy-benzamide] | 0.01 to 10 nM | 0.01 to 10 nM | 0.01 to 10 nM | 100 to 1000 nM | ++ (>1.5-4.5) | – |
| COc1cc(-c2cnc3cc(OCC4CN(CC#N)C4)ccn23)cc(OC(F)F)c1C(=O)NC1CC1 [Cpd 322, 4-[7-[[1-(cyanomethyl)azetidin-3-yl]methoxy]imidazo[1,2-a]pyridin-3-yl]-N-cyclopropyl-2-(difluoromethoxy)-6-methoxy-benzamide] | 0.01 to 10 nM | 10 to 100 nM | 0.01 to 10 nM | – | ++ (>1.5-4.5) | 0.1 to 100 nM |
| COc1cc(-c2cnc3cc(OCCCN4CCCCC4)ccn23)cc(OC(F)F)c1C(=O)NCC#N [compound 356, N-(cyanomethyl)-2-(difluoromethoxy)-6-methoxy-4-[7-[3-(1-piperidyl)propoxy]imidazo[1,2-a]pyridin-3-yl]benzamide] | 0.01 to 10 nM | 10 to 100 nM | 0.01 to 10 nM | 100 to 1000 nM | +++ (>4.5) | – |

Now from value to molecule, other results behind:

| IC50 (SIK2) | IC50 (SIK1) | IC50 (SIK3) | EC50 ([2]; 4 h) | Structure (SMILES) | IL-10 FCmax median [1] | EC50 [2] |
| --- | --- | --- | --- | --- | --- | --- |
| 0.01 to 10 nM | 10 to 100 nM | 0.01 to 10 nM | 0.1 to 100 nM | COc1cc(-c2cnc3cc(OCC4CCN(C(C)C)C4)ccn23)cc(OC(F)F)c1C(=O)NC1CC1 (centres unmarked) [Cpd 287, N-cyclopropyl-2-(difluoromethoxy)-4-[7-[(1-isopropylpyrrolidin-3-yl)methoxy]imidazo[1,2-a]pyridin-3-yl]-6-methoxy-benzamide] | ++ (>1.5-4.5) | – |
| 0.01 to 10 nM | 10 to 100 nM | 0.01 to 10 nM | 0.1 to 100 nM | COc1cc(-c2cnc3cc(OCCCN4CCC(F)(F)C(O)C4)ccn23)cc(OC(F)F)c1C(=O)NC1CC1 (centres unmarked) [compound 344, N-cyclopropyl-4-[7-[3-(4,4-difluoro-3-hydroxy-1-piperidyl)propoxy]imidazo [1,2-a]pyridin-3-yl]-2-(difluoromethoxy)-6-methoxy-benzamide] | ++ (>1.5-4.5) | – |
| 0.01 to 10 nM | 10 to 100 nM | 0.01 to 10 nM | 100 to 1000 nM | COc1cc(-c2cnc3cc(OC[C@@H]4CCN(CCO)C4)ccn23)cc(OC(F)F)c1C(=O)NC1CC1 [Cpd 349, N-cyclopropyl-2-(difluoromethoxy)-4-[7-[[(3R)-1-(2-hydroxyethyl)pyrrolidin-3-yl]methoxy]imidazo[1,2-a]pyridin-3-yl]-6-methoxy-benzamide] | +++ (>4.5) | – |
| 0.01 to 10 nM | 10 to 100 nM | 0.01 to 10 nM | 0.1 to 100 nM | COc1cc(-c2cnc3cc(OC[C@H]4CCCN(C(C)C)C4)ccn23)cc(OC(F)F)c1C(=O)NC1CC1 [compound 329, N-cyclopropyl-2-(difluoromethoxy)-4-[7-[[(3S)-1-isopropyl-3-piperidyl]methoxy]imidazo [1,2-a]pyridin-3-yl]-6-methoxy-benzamide] | +++ (>4.5) | – |
| 0.01 to 10 nM | 10 to 100 nM | 0.01 to 10 nM | 0.1 to 100 nM | COc1cc(-c2cnc3cc(OCC4CN(CCC#N)C4)ccn23)cc(OC(F)F)c1C(=O)NC1CC1 [Cpd 323, 4-[7-[[1-(2-cyanoethyl)azetidin-3-yl]methoxy]imidazo[1,2-a]pyridin-3-yl]-N-cyclopropyl-2-(difluoromethoxy)-6-methoxy-benzamide] | +++ (>4.5) | – |
| 0.01 to 10 nM | 10 to 100 nM | 0.01 to 10 nM | 100 to 1000 nM | COc1cc(-c2cnc3cc(OCC(O)CN4CCC(O)CC4)ccn23)cc(OC(F)F)c1C(=O)NC1CC1 (centres unmarked) [compound 379, N-cyclopropyl-2-(difluoromethoxy)-4-[7-[2-hydroxy-3-(4-hydroxy-1-piperidyl)propoxy]imidazo [1,2-a]pyridin-3-yl]-6-methoxy-benzamide] | ++ (>1.5-4.5) | – |
